According to patent publication US9801901B2, “Alginate oligomers for use in overcoming multidrug resistance in bacteria” (priority 2009, dated 2017):
≈ marks a conversion by molar mass, not a printed value. Read-outs that look alike come from different tables or passages of the source. Marks after values point to notes of the source that are not given here.

Legend:
[1] = tested on: PA01 Pseudomonas aeruginosa ATCC 15692; experiment: MIC assay, two-fold antibiotic dilutions in CAMHB with alginate oligomer, no visible growth; type: cell-based; conditions: Pseudomonas aeruginosa, read-out: MIC
[2] = tested on: Pseudomonas aeruginosa ATCC 39324, mucoid type strain (R79); experiment: MIC assay, CAMHB with alginate oligomer, no visible growth; type: cell-based; conditions: Pseudomonas aeruginosa, read-out: MIC
[3] = tested on: V5 AIM-1 E. coli; experiment: as above; type: cell-based; conditions: Escherichia coli, Table 4, V5 MDR E. coli
Excerpt: The study described in Example 1 was repeated with the following strains of bacteria and antibiotics as detailed in Tables 4, 5 and 6.

[4] = tested on: Pseudomonas aeruginosa MDR 301 from Poland (V2); experiment: as above; type: cell-based; conditions: Pseudomonas aeruginosa, Table 4, V2 MDR (Pol.), read-out: MIC
[5] = tested on: V12 5725 (Wales) Klebsiella pneumoniae; experiment: as above; type: cell-based; conditions: Table 5, V12 MDR Kleb pneu
[6] = tested on: V22 6056 Acinetobacter; experiment: as above; type: cell-based, Acinetobacter lwoffii; conditions: Table 5, V22 MDR Acin. lwoff
[7] = tested on: Pseudomonas aeruginosa (MDR 301, PSA, V2); experiment: MIC-assay, Mueller-Hinton broth with G-block alginate, 384-well, OD600; conditions: Table 8, V2
[8] = tested on: Pseudomonas aeruginosa (R22, PSA, V1); experiment: as above
[9] = tested on: Burkholderia cepacia (LMG18941, ATCC-BAA-246); experiment: as above
[10] = tested on: Acinetobacter lwoffii (6056, V22); experiment: as above
[11] = tested on: Acinetobacter baumannii (Egypt, V9); experiment: as above
[12] = tested on: Acinetobacter lwoffii (Egypt, V10); experiment: as above
[13] = Klebsiella pneumoniae, OligoCF-5/20 0G, read-out: MIC
[14] = Acinetobacter, OligoCF-5/20 0G, read-out: MIC
[15] = Pseudomonas aeruginosa, G-block (OligoCF-5/20) 0%
[16] = Pseudomonas aeruginosa, G-block (OligoCF-5/20) 2%
[17] = Table 8, G-block (OligoCF-5/20) 0%
[18] = ATCCBAA246|LMG18941, Table 8, G-block (OligoCF-5/20) 6%
[19] = ATCCBAA246|LMG18941, Table 8, G-block (OligoCF-5/20) 10%
[20] = Table 9, G-block (OligoCF-5/20) 0%
[21] = Table 9, G-block (OligoCF-5/20) 2%
[22] = Table 9, G-block (OligoCF-5/20) 6%
[23] = Table 9, G-block (OligoCF-5/20) 10%

SMILES	MIC [5, 13] [µg/mL]	MIC ([5]; OligoCF-5/20 +6% G) [µg/mL]	MIC ([5]; OligoCF-5/20 +10% G) [µg/mL]	MIC [6, 14] [µg/mL]	MIC ([6]; OligoCF-5/20 +2% G) [µg/mL]	MIC ([6]; OligoCF-5/20 +6% G) [µg/mL]	MIC ([6]; OligoCF-5/20 +10% G)	MIC [7, 15] [µg/mL]	MIC [7, 16] [µg/mL]	MIC [8, 17] [µg/mL]	MIC [9, 18] [µg/mL]	MIC [9, 19] [µg/mL]	MIC [10, 20] [µg/mL]	MIC [10, 21] [µg/mL]	MIC [10, 22] [µg/mL]	MIC [10, 23] [µg/mL]	MIC [11, 20] [µg/mL]	MIC [11, 21] [µg/mL]	MIC [11, 22] [µg/mL]	MIC [11, 23] [µg/mL]	other results
CC[C@H]1OC(=O)[C@H](C)[C@@H](O[C@H]2C[C@@](C)(OC)[C@@H](O)[C@H](C)O2)[C@H](C)[C@@H](O[C@@H]2O[C@H](C)C[C@H](N(C)C)[C@H]2O)[C@](C)(O)C[C@@H](C)C(=O)[C@H](C)[C@@H](O)[C@]1(C)O [Erythromycin]	512 (≈ 698 µM)	512 (≈ 698 µM)	512 (≈ 698 µM)	< 0.5	<0.5	<0.5	<0.5 µg/mL	> 512	> 512	> 512	64 (≈ 87.2 µM)	64 (≈ 87.2 µM)	< 2	< 2	< 2	< 2	8 (≈ 10.9 µM)	2 (≈ 2.73 µM)	1 (≈ 1.36 µM)	< 1	MIC ([1]; ATCC15692, Table 4, PA01 non MDR, OligoCF-5/20 0G): 128 µg/mL (≈ 174 µM); MIC ([1]; ATCC15692, Table 4, PA01 non MDR, OligoCF-5/20 +2% G): 64 µg/mL (≈ 87.2 µM); MIC ([1]; ATCC15692, Table 4, PA01 non MDR, OligoCF-5/20 +6% G): 64 µg/mL (≈ 87.2 µM); MIC ([1]; ATCC15692, Table 4, PA01 non MDR, OligoCF-5/20 +10% G): 16 µg/mL (≈ 21.8 µM); MIC ([2]; ATCC39324, Table 4, R79 non MDR (muc.), OligoCF-5/20 0G): 128 µg/mL (≈ 174 µM); MIC ([2]; ATCC39324, Table 4, R79 non MDR (muc.), OligoCF-5/20 +2% G): 64 µg/mL (≈ 87.2 µM); MIC ([2]; ATCC39324, Table 4, R79 non MDR (muc.), OligoCF-5/20 +6% G): 32 µg/mL (≈ 43.6 µM); MIC ([2]; ATCC39324, Table 4, R79 non MDR (muc.), OligoCF-5/20 +10% G): 2 µg/mL (≈ 2.73 µM); MIC ([3]; OligoCF-5/20 0G): 4 µg/mL (≈ 5.45 µM); MIC ([3]; OligoCF-5/20 +2% G): 4 µg/mL (≈ 5.45 µM); MIC ([3]; OligoCF-5/20 +6% G): ≤ 1 µg/mL; MIC ([3]; OligoCF-5/20 +10% G): ≤ 1 µg/mL; MIC ([4]; OligoCF-5/20 0G): 128 µg/mL (≈ 174 µM); MIC ([4]; OligoCF-5/20 +6% G): 64 µg/mL (≈ 87.2 µM); MIC ([4]; OligoCF-5/20 +10% G): 16 µg/mL (≈ 21.8 µM); MIC ([7]; G-block (OligoCF-5/20) 10%): 512 µg/mL (≈ 698 µM); MIC [12, 20]: 1 µg/mL (≈ 1.36 µM); MIC [12, 21]: < 1 µg/mL; MIC [12, 22]: < 1 µg/mL; MIC [12, 23]: < 1 µg/mL
CN(C)[C@@H]1C(O)=C(C(N)=O)C(=O)[C@@]2(O)C(O)=C3C(=O)c4c(O)cccc4[C@@](C)(O)[C@H]3[C@H](O)[C@@H]12 [Oxytetracycline]	1 (≈ 2.17 µM)	1 (≈ 2.17 µM)	1 (≈ 2.17 µM)	2 (≈ 4.34 µM)	2 (≈ 4.34 µM)	2 (≈ 4.34 µM)	8^‡ μg/ml	16 (≈ 34.7 µM)	16 (≈ 34.7 µM)	> 128	32 (≈ 69.5 µM)	32 (≈ 69.5 µM)	< 2	< 2	< 2	< 2	1 (≈ 2.17 µM)	0.5 (≈ 1.09 µM)	1 (≈ 2.17 µM)	0.5 (≈ 1.09 µM)	MIC ([1]; ATCC15692, Table 1, PA01, OligoCF-5/20 0G): 8 µg/mL (≈ 17.4 µM); MIC ([1]; ATCC15692, Table 1, PA01, OligoCF-5/20 +2% G): 4 µg/mL (≈ 8.69 µM); MIC ([1]; ATCC15692, Table 1, PA01, OligoCF-5/20 +6% G): 4 µg/mL (≈ 8.69 µM); MIC ([1]; ATCC15692, Table 1, PA01, OligoCF-5/20 +10% G): 4 µg/mL (≈ 8.69 µM); MIC ([2]; ATCC39324, Table 1, R79, OligoCF-5/20 0G): 8 µg/mL (≈ 17.4 µM); MIC ([2]; ATCC39324, Table 1, R79, OligoCF-5/20 +2% G): 4 µg/mL (≈ 8.69 µM); MIC ([2]; ATCC39324, Table 1, R79, OligoCF-5/20 +6% G): 4 µg/mL (≈ 8.69 µM); MIC ([2]; ATCC39324, Table 1, R79, OligoCF-5/20 +10% G): 2 µg/mL (≈ 4.34 µM); MIC ([5]; OligoCF-5/20 +2% G): 1 µg/mL (≈ 2.17 µM); MIC ([7]; Pseudomonas aeruginosa, G-block (OligoCF-5/20) 6%): 8 µg/mL (≈ 17.4 µM); MIC ([7]; Pseudomonas aeruginosa, G-block (OligoCF-5/20) 10%): 8 µg/mL (≈ 17.4 µM); MIC ([8]; Table 8, G-block (OligoCF-5/20) 2%): > 128 µg/mL; MIC ([8]; Table 8, G-block (OligoCF-5/20) 6%): > 128 µg/mL; MIC ([8]; Table 8, G-block (OligoCF-5/20) 10%): > 128 µg/mL; MIC ([9]; ATCCBAA246|LMG18941, Table 8, G-block (OligoCF-5/20) 0%): 32 µg/mL (≈ 69.5 µM); MIC ([9]; ATCCBAA246|LMG18941, Table 8, G-block (OligoCF-5/20) 2%): 16 µg/mL (≈ 34.7 µM); MIC [12, 20]: 0.5 µg/mL (≈ 1.09 µM); MIC [12, 21]: 0.5 µg/mL (≈ 1.09 µM); MIC [12, 22]: 0.5 µg/mL (≈ 1.09 µM); MIC [12, 23]: 0.5 µg/mL (≈ 1.09 µM)
